Experimental findings from US20240217978A1 (CHONG KUN DANG PHARMACEUTICAL CORP., priority 2021, published 2024) are described below.

In this test the target is human adenosine A2a receptor (Homo sapiens (Human), UniProt P29274). As to the kind of experiment: A2a receptor binding affinity, [3H]-NECA radioligand binding test. The conditions noted are these: [3H]-NECA 37 nM; membrane from HEK-293 cells transfected with human adenosine A2a receptor. The gist of the method: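 IC50 values (μM) come from displacement of [3H]-NECA, used at 37 nM final, on human A2a receptor membranes from transfected HEK-293 cells. Incubation lasted one hour at room temperature in Tris/MgCl2/EDTA buffer, pH 7.4; filter-bound radioactivity was counted by scintillation.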
Chain of human adenosine A2a receptor (P29274 whole entry): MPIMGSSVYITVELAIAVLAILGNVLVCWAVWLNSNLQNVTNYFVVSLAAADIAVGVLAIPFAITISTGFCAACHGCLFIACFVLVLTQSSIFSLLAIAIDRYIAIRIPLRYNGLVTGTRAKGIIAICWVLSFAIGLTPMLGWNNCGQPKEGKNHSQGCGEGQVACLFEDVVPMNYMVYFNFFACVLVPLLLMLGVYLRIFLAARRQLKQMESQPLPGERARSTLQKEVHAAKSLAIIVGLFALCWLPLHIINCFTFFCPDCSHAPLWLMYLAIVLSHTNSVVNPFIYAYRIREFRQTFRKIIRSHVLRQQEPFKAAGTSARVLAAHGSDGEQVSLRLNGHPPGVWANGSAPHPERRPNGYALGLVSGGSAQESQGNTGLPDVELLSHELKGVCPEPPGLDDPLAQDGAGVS

In general, IC50 refers to the midpoint of a concentration-inhibition curve. Read a high IC50 as weaker potency in that assay. The compound `CC(C)(O)CN1CCN(C(=O)[C@@H]2CCCN2c2nc(N)n3nc(-c4ccco4)nc3n2)CC1` [Example 302, (S)-(1-(7-amino-2-(furan-2-yl)-[1,2,4]triazolo[1,5-a][1,3,5]triazin-5-yl)pyrrolidin-2-yl)(4-(2-hydroxy-2-methylpropyl)piperazin-1-yl)methanone] yielded an IC50 of 6 nM.

`Nc1nc(N2CCC[C@H]2C(=O)N2CCN(CC3(F)CCOCC3)CC2)nc2nc(-c3ccco3)nn12` [Example 389, (S)-(1-(7-amino-2-(furan-2-yl)-[1,2,4]triazolo[1,5-a][1,3,5]triazin-5-yl)pyrrolidin-2-yl)(4-((4-fluorotetrahydro-2H-pyran-4-yl)methyl)piperazin-1-yl)methanone] had an IC50 of 7 nM. With `CC(C)(O)C(=O)N1CCN(C(=O)[C@@H]2CCCN2c2nc(N)n3nc(-c4ccco4)nc3n2)CC1` [Example 274, 1-(4-((7-amino-2-(furan-2-yl)-[1,2,4]triazolo[1,5-a][1,3,5]triazin-5-yl)-L-prolyl)piperazin-1-yl)-2-hydroxy-2-methylpropan-1-one] the figure was 8 nM; with `C[C@H](Nc1nc(N)n2nc(-c3ccco3)nc2n1)C(=O)N1CCC(C2CCN(CC(F)F)CC2)CC1` [Example 334, (S)-2-((7-amino-2-(furan-2-yl)-[1,2,4]triazolo[1,5-a][1,3,5]triazin-5-yl)amino)-1-(1′-(2,2-difluoroethyl)-[4,4′-bipiperidin]-1-yl)propan-1-one], 13 nM.

`C[C@@H]1CN(C(=O)Nc2ccccc2)CCN1C(=O)[C@@H]1CCCN1c1nc(N)n2nc(-c3ccco3)nc2n1` [Example 182, (R)-4-((7-amino-2-(furan-2-yl)-[1,2,4]triazolo[1,5-a][1,3,5]triazine-5-yl)-L-prolyl)-3-methyl-N-phenylpiperazin-1-carboxamide]: the IC50 amounted to 8 nM. With `Nc1nc(N2CCC[C@H]2C(=O)N2CC3CCC(C2)N3Cc2ccc(F)cc2F)nc2nc(-c3ccco3)nn12` [Example 50, ((S)-1-(7-amino-2-(furan-2-yl)-[1,2,4]triazolo[1,5-a][1,3,5]triazin-5-yl)pyrrolidin-2-yl)(8-(2,4-difluorobenzyl)-3,8-diazabicyclo[3.2.1]octan-3-yl)methanone] the figure was 9 nM; with `C[C@H]1CN(C(=O)Nc2ccccc2)CCN1C(=O)[C@@H]1CCCN1c1nc(N)n2nc(-c3ccco3)nc2n1` [Example 181, (S)-4-((7-amino-2-(furan-2-yl)-[1,2,4]triazolo [1,5-a][1,3,5]triazine-5-yl)-L-prolyl)-3-methyl-N-phenylpiperazin-1-carboxamide], 11 nM; with `Nc1nc(N[C@@H](Cc2ccccc2)C(=O)N2CCN(Cc3ccc(F)cc3F)CC2)nc2nc(-c3ccco3)nn12` [Example 13, (S)-2-((7-amino-2-(furan-2-yl)-[1,2,4]triazolo[1,5-a][1,3,5]triazin-5-yl)amino)-1-(4-(2,4-difluorobenzyl)piperazin-1-yl)-3-phenylpropan-1-one], 0.1 nM.

`Nc1nc(N2CCC[C@H]2C(=O)N2CCC(C3CCN(CC(F)(F)F)CC3)CC2)nc2nc(-c3ccco3)nn12` [Example 206, (S)-(1-(7-amino-2-(furan-2-yl)-[1,2,4]triazolo[1,5-a][1,3,5]triazin-5-yl)pyrrolidin-2-yl)(1′-(2,2,2-trifluoroethyl)-[4,4′-bipiperidin]-1-yl)methanone]: the IC50 was determined as 1 nM.

Regarding `Nc1nc(N2CC[C@H]2C(=O)N2CCN(C(=O)c3ccccc3)CC2)nc2nc(-c3ccco3)nn12` [Example 109, (S)-(1-(7-amino-2-(furan-2-yl)-[1,2,4]triazolo[1,5-a][1,3,5]triazin-5-yl)azetidin-2-yl)(4-benzoylpiperazin-1-yl)methanone], the concentration for half-maximal inhibition (IC50) is 13 nM. Consider `Nc1nc(N2CCC[C@H]2C(=O)N2CCN(Cc3ccc(F)cc3)CC2)nc2nc(-c3ccco3)nn12` [Example 45, (S)-(1-(7-amino-2-(furan-2-yl)-[1,2,4]triazolo[1,5-a][1,3,5]triazin-5-yl)pyrrolidin-2-yl)(4-(4-fluorobenzyl)piperazin-1-yl)methanone], for which the IC50 was 19 nM. With `C[C@@H]1CN(C(=O)c2ccccc2)CCN1C(=O)[C@@H]1CCCN1c1nc(N)n2nc(-c3ccco3)nc2n1` [Example 159, ((R)-4-((7-amino-2-(furan-2-yl)-[1,2,4]triazolo[1,5-a][1,3,5]triazin-5-yl)-L-prolyl)-3-methylpiperazin-1-yl)(phenyl)methanone] the figure was 9 nM. With `COC[C@H](Nc1nc(N)n2nc(-c3ccco3)nc2n1)C(=O)N1CCN(c2ncccn2)CC1` [Example 304, (S)-2-((7-amino-2-(furan-2-yl)-[1,2,4]triazolo[1,5-a][1,3,5]triazin-5-yl)amino)-3-methoxy-1-(4-(pyrimidin-2-yl)piperazin-1-yl)propan-1-one] the figure was 11 nM. With `CCCCCCN1CCN(C(=O)[C@@H]2CCCN2c2nc(N)n3nc(-c4ccco4)nc3n2)CC1` [Example 301, (S)-(1-(7-amino-2-(furan-2-yl)-[1,2,4]triazolo[1,5-a][1,3,5]triazin-5-yl)pyrrolidin-2-yl)(4-hexylpiperazin-1-yl)methanone] the figure was 3 nM; with `Nc1nc(N2CCC[C@H]2C(=O)N2CCN(S(=O)(=O)CC3CC3)CC2)nc2nc(-c3ccco3)nn12` [Example 68, (S)-(1-(7-amino-2-(furan-2-yl)-[1,2,4]triazolo[1,5-a][1,3,5]triazin-5-yl)pyrrolidin-2-yl)(4-((cyclopropylmethyl)sulfonyl)piperazin-1-yl)methanone], 9 nM. `Nc1nc(N2CCC[C@H]2C(=O)N2CCN(C(=O)NC3CCCCC3)CC2)nc2nc(-c3ccco3)nn12` [Example 117, 4-((7-amino-2-(furan-2-yl)-[1,2,4]triazolo[1,5-a][1,3,5]triazin-5-yl)-L-prolyl)-N-cyclohexylpiperazin-1-carboxamide] registered a 50% inhibitory concentration (IC50) of 11 nM. For `Nc1nc(N2CCC[C@H]2C(=O)N2CCN(CCCC(F)(F)F)CC2)nc2nc(-c3ccco3)nn12` [Example 239, (S)-(1-(7-amino-2-(furan-2-yl)-[1,2,4]triazolo[1,5-a][1,3,5]triazin-5-yl)pyrrolidin-2-yl)(4-(4,4,4-trifluorobutyl)piperazin-1-yl) methanone] the value was 6 nM; for `C[C@H](Nc1nc(N)n2nc(-c3ccco3)nc2n1)C(=O)N1CCC(C2CCN(CC(C)(C)O)CC2)CC1` [Example 333, (S)-2-((7-amino-2-(furan-2-yl)-[1,2,4]triazolo[1,5-a][1,3,5]triazin-5-yl)amino)-1-(1′-(2-hydroxy-2-methylpropyl)-[4,4′-bipiperidin]-1-yl)propan-1-one], 9 nM; for `C[C@H](Nc1nc(N)n2nc(-c3ccco3)nc2n1)C(=O)N1CCN(c2ncccn2)CC1` [Example 240, (S)-2-((7-amino-2-(furan-2-yl)-[1,2,4]triazolo[1,5-a][1,3,5]triazin-5-yl)amino)-1-(4-(pyrimidin-2-yl)piperazin-1-yl)propan-1-one], 0.3 nM. With `Nc1nc(N2CCC[C@H]2C(=O)N2CCN(c3ccccc3C(F)(F)F)CC2)nc2nc(-c3ccco3)nn12` [Example 150, (S)-(1-(7-amino-2-(furan-2-yl)-[1,2,4]triazolo[1,5-a][1,3,5]triazin-5-yl)pyrrolidin-2-yl)(4-(2-(trifluoromethyl)phenyl)piperazin-1-yl)methanone] the figure was 0.1 nM. With `Cc1ccc(-c2nc3nc(N4CC[C@H]4C(=O)N4CCN(C5CCCCC5)CC4)nc(N)n3n2)o1` [Example 219, (S)-(1-(7-amino-2-(5-methylfuran-2-yl)-[1,2,4]triazolo[1,5-a][1,3,5]triazin-5-yl)azetidin-2-yl)(4-cyclohexylpiperazin-1-yl)methanone] the figure was 3 nM; with `CC(C)(O)CC(=O)N1CCN(C(=O)[C@@H]2CCCN2c2nc(N)n3nc(-c4ccco4)nc3n2)CC1` [Example 229, 1-(4-((7-amino-2-(furan-2-yl)-[1,2,4]triazolo[1,5-a][1,3,5]triazin-5-yl)-L-prolyl)piperazin-1-yl)-3-hydroxy-3-methylbutan-1-one], 12 nM. As for `COC[C@H](Nc1nc(N)n2nc(-c3ccco3)nc2n1)C(=O)N1CCN(C2CCC(F)(F)CC2)CC1` [Example 398, (S)-2-((7-amino-2-(furan-2-yl)-[1,2,4]triazolo[1,5-a][1,3,5]triazin-5-yl)amino)-1-(4-(4,4-difluorocyclohexyl)piperazin-1-yl)-3-methoxypropan-1-one], the IC50 came to 20 nM. For `Nc1nc(N2CCC[C@H]2C(=O)N2CCN(C(=O)C3(C(F)(F)F)CCCC3)CC2)nc2nc(-c3ccco3)nn12` [Example 76] the value was 2 nM; for `Nc1nc(N2CCC[C@@H]2C(=O)N2CCN(C(=O)Nc3ccccc3)CC2)nc2nc(-c3ccco3)nn12` [Example 100], 9460 nM; for `Nc1nc(N2CCC[C@H]2C(=O)N2CCN(C3CCCCC3)CC23CC3)nc2nc(-c3ccco3)nn12` [Example 344, (S)-(1-(7-amino-2-(furan-2-yl)-[1,2,4]triazolo[1,5-a][1,3,5]triazin-5-yl)pyrrolidin-2-yl)(7-cyclohexyl-4,7-diazaspiro[2.5]octan-4-yl)methanone], 16 nM.

Compound `Nc1nc(N2CCC[C@H]2C(=O)N2CCC(N3CCC(F)(F)CC3)CC2)nc2nc(-c3ccco3)nn12` [Example 391, (S)-(1-(7-amino-2-(furan-2-yl)-[1,2,4]triazolo[1,5-a][1,3,5]triazin-5-yl)pyrrolidin-2-yl)(4,4-difluoro-[1,4′-bipiperidin]-1′-yl) methanone] displayed an IC50 of 7 nM. For `C[C@H](Nc1nc(N)n2nc(-c3ccco3)nc2n1)C(=O)N1CCN(CC(F)(F)C(F)F)CC1` [Example 318, (S)-2-((7-amino-2-(furan-2-yl)-[1,2,4]triazolo[1,5-a][1,3,5]triazin-5-yl)amino)-1-(4-(2,2,3,3-tetrafluoropropyl)piperazin-1-yl)propan-1-one] the value was 19 nM.
